In PMC5908160, “Inhibition of sperm motility in male macaques with EP055, a potential non-hormonal male contraceptive” (PLoS ONE, 2018):
pIC50: −log10 of the molar value.

Tests used:
[1] = tested on: human sperm; test: CASA (Computer Assisted Sperm Analysis) assay of human sperm motility; format: cell-based; conditions: n = 4 donors, read-out: average relative motility index (RMI) IC50
Method: Human semen samples were obtained from the Department of Obstetrics and Gynecology, University of North Carolina Memorial Hospital, Chapel Hill, NC. […] Semen samples were allowed to liquefy for 30 minutes and subjected to standard semen analysis to determine acceptability before freezing. All samples were stored in liquid nitrogen, and de-identified by the Department of Obstetrics and Gynecology, University of North Carolina Memorial Hospital, Chapel Hill, NC before further processing. A density gradient (Isolate catalog number 99264, Irving Scientific, Irving CA, or SpermCare catalog number 2221 and 2222, InvitroCare Inc., Frederick MD) was used to prepare spermatozoa for further analysis. At least 3 independent experiments were done per assay, each using a single donor.
Computer Assisted Sperm Analysis (CASA) was conducted as previously described. Briefly sperm were washed after the density gradient with EP buffer-0.4% BSA and resuspended in modified M16 for compound treatments. Sperm were diluted to 5 x 10^6/mL in 12x75 mm glass tubes with the appropriate treatment and incubated at 37°C in 5% CO2. […] The relative mobility index (RMI) is a measure of the effect of compound on sperm and is calculated as the VSL x %normal motility and normalized to the appropriate DMSO control.

[2] = EP055 testis, epididymis and plasma levels in cynomolgus males after i.v. infusion; format: in vivo, Macaca fascicularis; conditions: 63.25 mg/kg i.v.
Source text: Evaluation of the effects of an i.v. infusion of EP055 on male cynomolgus macaque reproductive system was done by Sinclair Research Center, LLC. (Study No: S14574). This study was reviewed and approved by the Sinclair IUCAC committee and complied with all applicable sections of USDA Policy 12 and the Final Rules of the Animal Welfare Act regulation (9 CFR). This study used 6 naïve cynomolgus males (3-4 yrs old, 4 kg or less). Doses of EP055 in 5% DMSO-PBS, pH 7.6 or vehicle control were infused by i.v. at 63.25 mg/kg. The infusion rate was 4 ml/min. Plasma and tissues (epididymis and testis) were collected at 2 hr or 6 hr and immediately frozen on dry ice. Samples were stored at -80 °C until processing. Half-life was approximated using the 2 hr and 6 hr points and an estimation of the initial plasma level using the initial dose of […], the circulating blood volume of 65 ml/kg, average hematocrit of 41.7 (S2 Table) and average animal size (3.72 kg for n=4).
Semen or tissue samples were thawed at room temperature. PBS at pH 7.6 was added to each sample at a ratio of 2:1 and sonicated in an ice chilled bath for 5 minutes before homogenization using a Polytron unit (Kinematica AG, Lucerne, Switzerland). An aliquot (25 uL) of each sample homogenate was processed as described for plasma samples.

COC(=O)NNc1nc(Nc2ccc(NC(C)=O)c(O)c2)nc(SCC(=O)O)n1 [EP055]
pIC50 [1]: 3.70
epididymis versus testis level (ug/mg of tissue) ([2]; 2 and 6 hours): significantly (p < 0.05) more EP055 (ug/mg of tissue) in the epididymis after 2 hours but not after 6 hours
total amounts in testis versus epididymis ([2]; 2 and 6 hours): not significantly different at 2 and 6 hours
presence in testis and epididymis ([2]; 2 and 6 hours post-infusion): detected in testis and epididymis two hours and six hours post-infusion
half-life ([2]; cynomolgus monkey, iv, extrapolated from 2 hr and 6 hr points and calculated initial plasma concentration, read-out: estimated plasma half-life (t1/2) in target tissue experiment): 11.9 min
